Source: patent publication US20080161234A1, “Composition Comprising Lactic Acid and Lactoferrin” (priority 2004, published 2008)
Counter-ions that a name gives are not always drawn.

Assays:
Type in all cases: cell-based
C. albicans (ATCC 64549) = assay: Microbicidal microplate assay (viable counts), C. albicans
Experimental: The bacterial strains S. aureus 1800 (CCUG 1800), E. coli 06, and the yeast C. albicans (ATCC 64549) have been used in the microplate assay. All microorganisms were cultured in brain heart infusion medium (BHI) on a shaker over night at 37° C. A volume of the culture was transferred to a new tube with BHI and incubated for two more h on the shaker. The bacteria were harvested in the log phase, washed once and thereafter suspended in the broth used for the microplate assay. The suspension was adjusted spectrophotometrically and diluted to a concentration of approximately 4×10^6 cells per ml at 650 nm. Washed cells were suspended in 0.2% BP (pH 7.0) or BHI medium diluted 1/10 (0.34%, pH 6.7-6.9) (Difco, USA). The concentration of bacterial or fungal cells was spectrophotometrically adjusted. LF or peptide, serially diluted in BHIdil or BP by twofold steps (unless otherwise stated), were added in triplicate to the wells of a microtiterplate (200 ul per well). The bacterial or yeast cell solutions were added in 10 ul volumes to give a final concentration of approximately 2×10^5 cells per ml. The concentration of the stock solution was always checked by viable counts. The microplate was incubated at 37° C. in a humid chamber for 2 h unless otherwise stated. Five ul were taken from each well and added as a drop onto a blood agar plate and incubated over night at 37° C. In some experiments more thorough viable counts were performed and the killing was expressed as remaining colony forming units in relation to the inoculum. The lower limit for detection of microorganisms was 200 CFU/ml. The antimicrobial activity of human LF was analysed by the microbicidal assay described above. Different microbes such as C. albicans, E. coli and S. aureus were analysed with respect to their survival in lactate (not containing the inert gel base, which makes the gel unsuitable for the microbicidal assay) containing LF. […] LF was incubated together with various concentrations of lactate diluted in 0.2% bactopeptone and C. albicans for 2 h. Thereafter each solution was analysed for viable counts.

L. jensenii = assay: Survival of L. jensenii in lactate with LF; conditions: lactate 1%, 0.34% BHI, CO2, 3 h
Experimental: L. gasseri and L. jensenii were cultured on chocolate-agar plates for 24 h in 5% CO2/95% air. They were thereafter harvested and added to BHI (0.34%). After washing the bacterial solutions were adjusted spectrophotometrically and diluted to 8×10^6 bacteria/ml.
Washed cells were suspended in 0.2% BP (pH 7.0) or BHI medium diluted 1/10 (0.34%, pH 6.7-6.9) (Difco, USA). The concentration of bacterial or fungal cells was spectrophotometrically adjusted. LF or peptide, serially diluted in BHIdil or BP by twofold steps (unless otherwise stated), were added in triplicate to the wells of a microtiterplate (200 ul per well). The bacterial or yeast cell solutions were added in 10 ul volumes to give a final concentration of approximately 2×10^5 cells per ml. The concentration of the stock solution was always checked by viable counts. The microplate was incubated at 37° C. in a humid chamber for 2 h unless otherwise stated. Five ul were taken from each well and added as a drop onto a blood agar plate and incubated over night at 37° C. In some experiments more thorough viable counts were performed and the killing was expressed as remaining colony forming units in relation to the inoculum. The lower limit for detection of microorganisms was 200 CFU/ml.
L. gasseri survived better in the assay system than did L. jensenii. Undiluted lactate (5%) affected the survival of Lactobacillus.

[1] = system: S. aureus 1800 (CCUG 1800); assay: Microbicidal microplate-droplet assay, S. aureus
Experimental: (§1) The bacterial strains S. aureus 1800 (CCUG 1800), E. coli 06, and the yeast C. albicans (ATCC 64549) have been used in the microplate assay. All microorganisms were cultured in brain heart infusion medium (BHI) on a shaker over night at 37° C. A volume of the culture was transferred to a new tube with BHI and incubated for two more h on the shaker. The bacteria were harvested in the log phase, washed once and thereafter suspended in the broth used for the microplate assay. The suspension was adjusted spectrophotometrically and diluted to a concentration of approximately 4×10^6 cells per ml at 650 nm. Washed cells were suspended in 0.2% BP (pH 7.0) or BHI medium diluted 1/10 (0.34%, pH 6.7-6.9) (Difco, USA). The concentration of bacterial or fungal cells was spectrophotometrically adjusted. LF or peptide, serially diluted in BHIdil or BP by twofold steps (unless otherwise stated), were added in triplicate to the wells of a microtiterplate (200 ul per well). The bacterial or yeast cell solutions were added in 10 ul volumes to give a final concentration of approximately 2×10^5 cells per ml. The concentration of the stock solution was always checked by viable counts. The microplate was incubated at 37° C. in a humid chamber for 2 h unless otherwise stated. Five ul were taken from each well and added as a drop onto a blood agar plate and incubated over night at 37° C. In some experiments more thorough viable counts were performed and the killing was expressed as remaining colony forming units in relation to the inoculum. The lower limit for detection of microorganisms was 200 CFU/ml. The antimicrobial activity of human LF was analysed by the microbicidal assay described above. Different microbes such as C. albicans, E. coli and S. aureus were analysed with respect to their survival in lactate (not containing the inert gel base, which makes the gel unsuitable for the microbicidal assay) containing LF.

E. coli 06 = assay: Microbicidal microplate-droplet assay, E. coli; set-up: key to E. coli killing, growth grade in droplet assay: +++ means that the number of colony forming units (CFU) contained within 5 ul of a droplet formed a smooth layer of bacteria; ++ means that a “ruffled” area is seen; 0 means that no CFU were found in triplicate samples of 5 ul (>99.95 killed of the inoculum)
Experimental: as §1

[2] = in the absence or presence of LF

SMILES: Cl [HCl, hydrogen chloride, reference compound]
- Candidacidal activity with lactate replaced by HCl (C. albicans (ATCC 64549); HCl giving the same pH as lactate, undiluted, with LF): reduced Candidacidal activity

SMILES: CC(O)C(=O)O (stereo not drawn) [lactate, α-hydroxipropionic acid]
- reduction of Candida (C. albicans (ATCC 64549); lactate 1% without LF, 2 h): 65%
- antifungal activity (C. albicans (ATCC 64549); undiluted lactate): an antifungal activity was observed
- survival of C. albicans (C. albicans (ATCC 64549); undiluted lactate (5%), 2 h): no yeast cells survived
- antimicrobial activity against C. albicans (C. albicans (ATCC 64549); undiluted lactate (5%), without LF or HL2): complete
- survival of L. jensenii (L. jensenii): did not survive
- antibacterial activity towards S. aureus [1, 2]: good
- S. aureus killing, percentage of bacteria remaining in relation to the inoculum ([1]; lactate 0.2% alone (HLF t0 ug/ml), 2 h incubation): 0 (0 = no bacteria in triplicate samples of 5 ul (>99.95 killed of the inoculum).)
- S. aureus killing, percentage of bacteria remaining in relation to the inoculum ([1]; lactate 0.2% alone (HLF t0 ug/ml), 5 h incubation): 0 (0 = no bacteria in triplicate samples of 5 ul (>99.95 killed of the inoculum).)
- S. aureus killing, percentage of bacteria remaining in relation to the inoculum ([1]; lactate 1% alone (HLF t0 ug/ml), 2 h incubation): 0 (0 = no bacteria in triplicate samples of 5 ul (>99.95 killed of the inoculum).)
- S. aureus killing, percentage of bacteria remaining in relation to the inoculum ([1]; lactate 1% alone (HLF t0 ug/ml), 5 h incubation): 0 (0 = no bacteria in triplicate samples of 5 ul (>99.95 killed of the inoculum).)
- S. aureus killing, percentage of bacteria remaining in relation to the inoculum ([1]; lactate 5% alone (HLF t0 ug/ml), 2 h incubation): 0 (0 = no bacteria in triplicate samples of 5 ul (>99.95 killed of the inoculum).)
- S. aureus killing, percentage of bacteria remaining in relation to the inoculum ([1]; lactate 5% alone (HLF t0 ug/ml), 5 h incubation): 0 (0 = no bacteria in triplicate samples of 5 ul (>99.95 killed of the inoculum).)
- antimicrobial activity against S. aureus ([1]; undiluted lactate, without LF): complete
- antibacterial activity towards E. coli (E. coli 06; [2]): good
- E. coli killing, growth grade in droplet assay (E. coli 06; lactate 0.2% alone (HLF 0 ug/ml), 2 h incubation): ++
- E. coli killing, percentage of bacteria remaining in relation to the inoculum (E. coli 06; lactate 0.2% alone (HLF 0 ug/ml), 5 h incubation): 5%
- E. coli killing, percentage of bacteria remaining in relation to the inoculum (E. coli 06; lactate 1% alone (HLF 0 ug/ml), 5 h incubation): 6%
- E. coli killing, percentage of bacteria remaining in relation to the inoculum (E. coli 06; lactate 5% alone (HLF 0 ug/ml), 2 h incubation): 0 (0 means that no CFU were found in triplicate samples of 5 ul (>99.95 killed of the inoculum))
- E. coli killing, percentage of bacteria remaining in relation to the inoculum (E. coli 06; lactate 5% alone (HLF 0 ug/ml), 5 h incubation): 0 (0 means that no CFU were found in triplicate samples of 5 ul (>99.95 killed of the inoculum))
- survival of E. coli (E. coli 06; undiluted lactate (5%), 2 h): no bacteria survived
- antimicrobial activity against E. coli (E. coli 06; undiluted lactate, without LF): complete
